Results: patent US20190029987A1, “DIMETHYL FUMARATE (DMF) FOR PREVENTION OR TREATMENT OF GOUT, ACNE, DIABETES, VITILIGO AND/OR PYODERMA GANGRENOSUM” (UNIVERSITAT ZURICH, priority 2016, published 2019)

What was measured:
[1] = system: Nrf2 target genes (GCLC, GCLM, NAD(P)H dehydrogenase, quinone 1); assay: Nrf2 target gene expression in HPKs (qRT-PCR); type: cell-based, human; conditions: 10 μM, RNA after 8 h, FIG. 6G
Protocol: Human primary keratinocytes (HPKs) constitutively express pro-IL-1β and inflammasome proteins.
qRT-PCR was performed with the LightCycler 480 SYBR Green Master or the FastStart Universal SYBR Green Master (both Roche, Rotkreuz, Switzerland) using total cellular RNA. Specific primer pairs (Supplementary Table 2) were designed to generate an approximately 150 bp fragment flanking an intron-exon border of the corresponding gene. The LightCycler 480 96-well version (ROCHE, Rotkreuz, Switzerland) or the ViiA 7 Real-Time FOR System (Life Technologies, Carlsbad, US-CA) was used for reaction and detection according the instructions of the manufacturer.
FIG. 6: Bone marrow (BM) cells were isolated from Nrf2-deficient mice and wt litterfnates and differentiated into dendritic cells (DCs). (A, B) After priming with upLPS overnight, BMDCs were treated with the NLRP3 inflammasome activators nigericin (20 μM), zymosan (20 μg/ml), MSU (150 μg/ml), ATP (5 mM) or transfected with poly(dA:dT) (1 μg/ml) for activation of the AIM2 inflammasome. After 6 h, supernatants were analysed for secretion of IL-1β by (A) ELISA or (B) Western blot. Mock-treated but primed BMDCs were analysed for expression of inflammasome proteins and pro-IL-1β at the (C) mRNA level by qRT-PCR or at the (D) protein level by Western blot. (B, D) Duplicates from two individual mice per genotype are shown (biological replicates). (E-G) HPKs were treated with the Nrf2 activators SFN (10 μM), tBHQ (10 μM), DMF (50 μM) and 15d-PGJ2 (10 μM). After 1 h, the cells were harvested and analysed for expression of the indicated proteins using total cell lysates (E) or cytoplasmic and nuclear lysates (F). Western blots for the nuclear protein lamin NC and the cytoplasmic protein α-tubulin served as controls. Specific bands are marked with an asterisk. (G) Total RNA was isolated after 8 h and qRT-PCR was performed for quantification of expression of the Nrf2 target genes glutamate-cysteine ligase, catalytic subunit (GCLC), glutamate-cysteine ligase, modifier subunit (GCLM), and NAD(P)H dehydrogenase, quinone 1 (N001). (A-G) Representative experiments performed at least three times are shown. […] Mann-Whitney test was performed. […] Mann-Whitney test was performed. *P≤0.05

[2] = system: NLRP3 inflammasome; assay: UVB irradiation-induced inflammasome activation in HPKs (IL-1β ELISA, Western blot); type: cell-based, human; conditions: for relative efficiency/potency of inflammasome inhibition between compounds: UVB, same concentrations; for relative efficiency/potency of inflammasome inhibition between compounds / inflammasome activation (processed caspase-1, mature IL-1β and -18 in the supernatant): FIG. 2A, 8A-C; for inflammasome activation (processed caspase-1, mature IL-1β and -18 in the supernatant): different doses, UVB 30 min later, harvested after 5 h
Text: (§1) To determine the effects of Nrf2 activating compounds on inflammasome activation, the inventors treated keratinocytes with different doses of SFN, tBHQ, DMF or 15d-PGJ2 and irradiated the cells with UVB.
(§2) SFN, DMF, 15d-PGJ2, tBHQ, zymosan, ATP, poly(dA:dT), cycloheximide, puromycin, and doxycycline were purchased from Sigma (Munich, Germany), nigericin from Enzo Life Sciences (New York, US-NY), MG132 from Calbiochem (Darmstadt, Germany), and blasticidin from Invivogen (Toulouse, France). Release of IL-1p was determined by ELISA according the instructions of the manufacturer (R&D Systems, Minneapolis, US-MN). MSU crystals were prepared by crystallisation of a supersaturated solution of uric acid under mildly basic conditions. Briefly, uric acid was added to a solution of NaOH, the solution was boiled until the uric acid was dissolved and passed through a filter. NaCl was added and crystallisation was performed at 4° C. Crystals were filtered, then dried using a speedvac, weighted and autoclaved.
(§3) (A) HPKs were treated with the indicated concentrations of the Nrf2 activating compound tBHQ irradiated with UVB 30 min later and harvested after 5 h. ELISA measurements were performed for quantification of IL-1β secretion and Western blots for analysis of expression and activation of the indicated proteins. Specific bands are marked with an asterisk. (B) THP-1 cells were differentiated with PMA (27 nM) for 3 d, primed with upLPS (100 ng/ml) overnight, and 1 h before inflammasome activation (5 μM nigericin, 150 μg/ml MSU) treated with SFN (10 μM), 15-PGJ2 (10 μM) or DMF (50 μM) (15-PG: 15-PGJ2). Cells and supernatants were harvested after 5 h and analysed for inflammasome activation by ELISA measurement of IL-1p and Western blots as indicated. (C) Freshly isolated PBMCs from human blood were primed overnight with upLPS (100 ng/ml) and treated with SFN (10 μM), tBHQ (10 μM), DMF (50 μM) or 15-PGJ2 (10 μM) 1 h before inflammasome activation by nigericin (5 μM). ELISA measurement for secretion of IL-1β as readout for inflammasome activation was performed after 5 h. (D) HPKs or (E) differentiated and primed THP-1 cells were pretreated with cycloheximide (CHX, 30 μg/ml) to block protein synthesis for 1 h before SFN (10 μM) was added to the cells and after an additional hour the inflammasome was activated by (D) irradiation with UVB or (E) treatment with nigericin (5 μM). Cells and supernatants were harvested after (D) 6 h or (E) 3.5 h and analysed for inflammasome activation by Western blot as indicated. (A-E) Representative experiments performed at least three times are shown. Statistics: (A-C) Error bars represent the mean±SD of a representative experiment performed in triplicates. One-way ANOVA was performed. **P≤0.01; ***P≤0.001.
FIG. 8: (A-C) HPKs were treated with the Nrf2 activating compounds (A) SFN, (B) DMF, and (C) 15d-PGJ2, irradiated with UVB 30 min later and harvested after 5 h. Analogous experiment as described in FIG. 2A for tBHQ. (D) THP-1 cells were differentiated with TPA for 3 d and primed with LPS overnight. Then, cells were treated with the solvent DMSO, SFN (10 μM) or 15-PGJ2 (10 μM). After 30 min the inflammasome was activated by nigericin treatment and cells and supernatants were harvested after 2.5 h. Western blots showing prolL-1β and mature IL-1p in the lysate and supernatant. 20% lysate and supernatant of a 12 well was used, respectively, in order to allow a comparison. IL-1β was quantified in the supernatant by ELISA and cytotoxicity by LDH release.

[3] = molecular target: T1, NLRP3 inflammasome (Homo sapiens, UniProt Q96P20); assay: Nigericin-induced IL-1β secretion in human PBMCs (ELISA); type: cell-based; conditions: 10 μM 1 h before nigericin (5 μM), 5 h, FIG. 2C
T1 construct: endogenous in cells
Text: as §1, §2, §3

[4] = system: Monosodium urate (MSU) crystal-induced peritonitis; conditions: mice, high concentrations injected into the peritoneum; cited from earlier work

T1 sequence (Q96P20 whole entry): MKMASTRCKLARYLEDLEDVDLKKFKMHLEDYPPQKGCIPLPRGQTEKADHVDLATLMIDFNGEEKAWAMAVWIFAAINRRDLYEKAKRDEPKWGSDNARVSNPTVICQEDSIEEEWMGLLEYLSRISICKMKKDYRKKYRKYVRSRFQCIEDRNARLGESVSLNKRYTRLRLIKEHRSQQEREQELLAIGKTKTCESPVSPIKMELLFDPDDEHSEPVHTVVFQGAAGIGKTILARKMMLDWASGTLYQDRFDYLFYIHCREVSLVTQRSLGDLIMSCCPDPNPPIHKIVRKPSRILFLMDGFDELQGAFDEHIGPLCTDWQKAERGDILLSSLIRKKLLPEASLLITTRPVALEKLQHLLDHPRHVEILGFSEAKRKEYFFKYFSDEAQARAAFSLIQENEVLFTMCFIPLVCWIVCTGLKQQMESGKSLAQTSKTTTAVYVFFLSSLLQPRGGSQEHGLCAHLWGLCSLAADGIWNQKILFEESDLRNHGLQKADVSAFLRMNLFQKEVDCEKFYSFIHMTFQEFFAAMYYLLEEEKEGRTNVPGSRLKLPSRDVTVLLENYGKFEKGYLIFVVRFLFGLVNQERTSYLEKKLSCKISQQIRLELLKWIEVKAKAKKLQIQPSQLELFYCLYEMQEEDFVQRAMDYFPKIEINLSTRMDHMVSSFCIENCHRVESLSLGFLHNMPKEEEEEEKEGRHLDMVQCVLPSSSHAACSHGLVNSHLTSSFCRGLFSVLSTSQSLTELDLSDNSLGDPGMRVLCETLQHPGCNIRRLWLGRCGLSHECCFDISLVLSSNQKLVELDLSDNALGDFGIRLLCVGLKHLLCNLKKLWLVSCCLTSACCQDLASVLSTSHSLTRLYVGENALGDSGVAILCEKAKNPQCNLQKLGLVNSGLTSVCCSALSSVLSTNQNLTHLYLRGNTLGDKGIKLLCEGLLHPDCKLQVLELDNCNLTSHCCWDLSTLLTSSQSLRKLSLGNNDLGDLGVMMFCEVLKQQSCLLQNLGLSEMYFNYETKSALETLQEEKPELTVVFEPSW

SMILES	expression of classical Nrf2 target genes [1]	relative efficiency/potency of inflammasome inhibition between compounds [2]	inflammasome activation (processed caspase-1, mature IL-1β and -18 in the supernatant) [2]	IL-1β secretion [3]	inflammasome activation and MSU-induced peritonitis [4]	inflammasome inhibition by SFN with protein synthesis blocked by cycloheximide ([2]; CHX 30 μg/ml 1 h before SFN 10 μM, UVB 1 h later, 6 h, FIG. 2D)
CCCCCC=CC=C1C(=O)C=CC1CC=CCCCC(=O)O [15d-PGJ2, 15-deoxy-D-prostaglandin J2]	induction of classical Nrf2 target genes	much more efficient than tBHQ and DMF	inhibited inflammasome activation in a dose-dependent manner	inhibited IL-1β secretion	blocked inflammasome activation and reduced MSU-induced peritonitis	–
C[S+]([O-])CCCCN=C=S (centres unmarked) [SFN, sulforaphane]	induction of classical Nrf2 target genes	much more efficient than tBHQ and DMF	inhibited inflammasome activation in a dose-dependent manner	inhibited IL-1β secretion	blocked inflammasome activation and reduced MSU-induced peritonitis	did not prevent inflammasome inhibition
